{"source": "patent US12071469B2", "about": "“Peptide compounds for suppressing inflammation” (Duke University, priority 2011, dated 2024)", "tested_on": "mice with traumatic brain injury", "assay": "Rotorod vestibulomotor function after traumatic brain injury", "format": "in vivo, mouse", "conditions": "0.05 mg/kg iv at 2 h and 6 h after traumatic brain injury", "method": "An experimental murine model for traumatic brain injury was developed. Laskowitz, et al. (2010) J. Neurotrauma, 27:1983-95. Male mice (age 12-14 weeks) were anesthetized with 4.3% isoflurane in oxygen in an anesthesia induction box for 90 seconds. The trachea was intubated and the lungs mechanically ventilated with 1.4% isoflurane in a 50/50 mixture of oxygen and nitrogen. Body temperature was maintained at 37° C. using surface heating/cooling. The top of the skull was exposed by a midline incision to identify anatomical landmarks, and a concave 3-mm metallic disc was secured to the skull surface with an adhesive, directly midline and just caudal to the bregma. The disc diffused the energy of impact and reduced the incidence of depressed skull fracture to less than 10%. After general anesthesia, mice were positioned in a stereotactic device and the skull was exposed. A pneumatic impactor (diameter: 2.0 mm; available from Air-Power, Inc.) discharged at 6.8±0.2 m/s with a head displacement of 3 mm was used to deliver a single midline impact to the disc surface.\nAn experimental procedure for measuring neurological deficits was developed. An automated rotorod (available from Ugo Basile North America, Inc.) was used to assess vestibulomotor function. On the day before experimental induction of a neurological condition or injury (such as, for example, traumatic brain injury or intracerebral hemorrhage as described above), mice under went two consecutive conditioning trials at a set rotational speed (16 revolutions per minute) for 60 seconds followed by three additional trials with an accelerating rotational speed. The average time to fall from the rotating cylinder in the latter three trials was recorded as baseline latency. After injury, mice under went consecutive daily testing with three trials of accelerating rotational speed (intertribal interval of 15 minutes). Average latency to fall from the rod was recorded, and mice unable to grip the rod were scored with a latency of 0 seconds.\nGroups of mice received either an ApoE mimetic peptide (SEQ ID NO:3; 0.05 mg/kg or 0.2 mg/kg) or carrier (saline) by intravenous tail vein injection at 2 hours and again at 6 hours after traumatic brain injury induced as described in Example 3. Each mouse was tested for vestibulomotor function by rotorod latency measured before and after injury, as described in Example 3.\nGroups of mice received either an ApoE mimetic peptide (SEQ ID NO:4; 0.05 mg/kg) or carrier (saline) by intravenous tail vein injection at 2 hours and again at 6 hours after traumatic brain injury induced as described in Example 3. Each mouse was tested for vestibulomotor function by rotorod latency measured before and after injury, as described in Example 3. […]", "data": [{"substance": "Ac-VSRRR-NH2 [VR-55, Ac-VSRRR-NH2]", "values": [{"measurement": "durability of effect on rotorod latency", "result": "durable through the five-day testing period"}, {"measurement": "vestibulomotor performance (rotorod latency) compared to carrier", "setting": "FIG. 3", "result": "improved vestibulomotor performance"}]}]}
